We go through 1 compound from patent US20160000782A1, “PHARMACEUTICAL COMPOSITION CONTAINING ANTIBACTERIAL AGENT” (priority 2013, published 2016).

The test system of this test is Archaea (extreme halophile) infection causing dementia. Put plainly: Treatment of patients with progressive dementia of unknown etiology (clinical course, MRI). The class given is in vivo, human. The procedure: The present inventors conducted studies by targeting 4 subjects with progressive dementia of unknown etiology at the Kagoshima University Medical and Dental Hospital. This study took place after the informed consent of the patients involved had been obtained. Also, this study was carried out with the approval of the ethical review committee of Kagoshima University.
Dementia was evaluated using the Revised Hasegawa Dementia Scale (HDS-R), which is […] that used for the mini-mental status examination (MMSE).

`CO/N=C(\C(=O)N[C@@H]1C(=O)N2C(C(=O)O)=C(CSc3nc(=O)c(=O)[nH]n3C)CS[C@H]12)c1csc(N)n1` [ceftriaxone]: where the note is “Patient 1, ceftriaxone and methylprednisolone administered together, 2 weeks after the initial administration”, the symptoms result is reported as “improved slightly”. In addition, under “Patient 1, ceftriaxone and methylprednisolone administered together, later course, enlarged lesion in base of temporal lobe on brain MRI”, the symptoms thereafter result is on record as “tended to progress”. Also, the improvement entry (Patient 3, ceftriaxone 4 g/day intravenous for 2 weeks) is reported as “no improvement was observed”.
